IC50, growth and Activity data for one compound are collected here from ChEMBL document CHEMBL4152230, “Discovery of N-{3-[(ethanimidoylamino)methyl]benzyl}-l-prolinamide dihydrochloride: A new potent and selective inhibitor of the inducible nitric oxide synthase as a promising agent for the therapy of malignant glioma” (Eur J Med Chem, 2018).

One test addresses T1, Nitric oxide synthase 3 (Bos taurus, UniProt P29473).
T1 sequence (P29473 whole entry): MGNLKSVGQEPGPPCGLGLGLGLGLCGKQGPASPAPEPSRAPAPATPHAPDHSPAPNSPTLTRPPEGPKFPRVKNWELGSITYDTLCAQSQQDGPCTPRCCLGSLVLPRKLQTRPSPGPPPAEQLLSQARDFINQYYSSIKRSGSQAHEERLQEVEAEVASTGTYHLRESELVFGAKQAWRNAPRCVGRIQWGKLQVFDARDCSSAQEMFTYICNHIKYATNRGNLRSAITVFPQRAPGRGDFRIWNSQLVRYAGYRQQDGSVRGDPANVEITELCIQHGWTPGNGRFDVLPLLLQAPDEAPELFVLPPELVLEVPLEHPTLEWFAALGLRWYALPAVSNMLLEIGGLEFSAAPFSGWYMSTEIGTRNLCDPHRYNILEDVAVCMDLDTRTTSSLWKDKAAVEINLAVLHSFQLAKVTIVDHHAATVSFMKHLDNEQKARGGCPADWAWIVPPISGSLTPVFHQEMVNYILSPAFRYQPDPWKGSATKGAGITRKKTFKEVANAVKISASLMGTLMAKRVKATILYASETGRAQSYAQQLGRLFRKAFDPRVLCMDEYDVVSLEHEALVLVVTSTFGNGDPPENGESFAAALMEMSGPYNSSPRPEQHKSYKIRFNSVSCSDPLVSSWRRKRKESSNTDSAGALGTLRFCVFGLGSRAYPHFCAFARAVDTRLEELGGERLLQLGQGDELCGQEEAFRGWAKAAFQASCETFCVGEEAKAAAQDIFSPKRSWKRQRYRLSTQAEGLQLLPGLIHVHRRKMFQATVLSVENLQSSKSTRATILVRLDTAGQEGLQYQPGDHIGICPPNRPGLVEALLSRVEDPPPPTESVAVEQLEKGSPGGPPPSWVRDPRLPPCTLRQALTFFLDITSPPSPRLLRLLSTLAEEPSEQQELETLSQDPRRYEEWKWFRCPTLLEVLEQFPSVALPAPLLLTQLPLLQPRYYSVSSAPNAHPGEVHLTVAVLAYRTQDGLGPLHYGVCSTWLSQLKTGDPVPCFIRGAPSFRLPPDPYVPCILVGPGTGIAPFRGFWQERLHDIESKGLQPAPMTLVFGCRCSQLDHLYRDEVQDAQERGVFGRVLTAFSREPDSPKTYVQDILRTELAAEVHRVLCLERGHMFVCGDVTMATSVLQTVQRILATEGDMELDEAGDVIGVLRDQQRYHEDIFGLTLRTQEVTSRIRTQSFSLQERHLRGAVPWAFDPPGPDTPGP
In words: Inhibition of recombinant bovine eNOS using [3H]L-arginine as substrate preincubated for 15 mins followed by NADPH addition measured after 20 mins in presence of FMN/FAD by liquid scintillation counting method.

Test [1] concerns C6. In words: Cytotoxicity against rat C6 cells assessed as cell proliferation at 2 mM after 72 hrs by MTT assay relative to control. It counts as functional. The note with it: C6, 72 h, read-out: Activity.
Test [2] relates to C6. In words: Cytotoxicity against rat C6 cells assessed as LDH release at 1 mM after 72 hrs by CytoTox96 non-radioactive assay (reference value: 5.41%). It counts as functional. In general terms: Release of lactate dehydrogenase indicates damage to the cell membrane.

pIC50: −log10 of the molar value.

Broadly, the pIC50 is the negative decadic logarithm of the IC50, by convention in mol/L. On to `CC(=N)NCc1cccc(CNC(=O)[C@@H]2CCCN2)c1.Cl.Cl`, for which, at Nitric oxide synthase 3, the pIC50 was 3.58. The growth at 2000 µM in the test with C6 [1] was 55.2%. For the same compound, in the test with C6 [2], the Activity was found to be 16.78%.
